These results are taken from PubChem BioAssay (NCI).

Each structure is given as a SMILES string. Where “and” joins values, the source holds several entries; their conditions need not be identical. Identical values can stand only once.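 48-hour exposure; five concentrations; linearly interpolated endpoints. GI50 is the concentration that inhibits growth by half. TGI is the concentration that stops growth completely.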

Assay in all cases: inhibition of tumour cell growth, NCI panel, 48 h
The test system of assay [1] is TK-10 renal.
Assay [2] relates to SF-268 CNS.
Assay [3] concerns COLO 205 colon.
The subject of assay [4] is HL-60(TB) leukemia.
The test system of assay [5] is HOP-92 NSCLC.
For assay [6], the system named is UACC-257 melanoma.
Assay [7] concerns SK-MEL-2 melanoma.
For assay [8], the system named is PC-3 prostate.
Assay [9] has as its system HT29 colon.
The subject of assay [10] is NCI-H226 lung.

Take `C#Cc1cccc(NC(=O)C2CCCCN2C(=O)CCl)c1` (stereo not drawn): the GI50 in assay [1] was 15.6 µM; in assay [2] it was 21.1 µM; in [3], 15.6 µM; in assay [4] it was 16.8 µM; in assay [5] it was 12.5 µM; in assay [6] it was 26.2 µM. Also, the GI50 is 23.9 µM in assay [7], 32.9 µM in [8], 18.7 µM in assay [9] and 52.1 µM in assay [10]. The TGI was 33.6 µM in assay [1]; 75.2 µM in assay [2]; 34.7 µM in assay [3]; 51.7 µM in [4]; 43.3 µM in assay [5]; > 82.5 µM in assay [6]. In addition, the TGI in assay [7] is > 82.5 µM; in assay [8] it was > 82.5 µM; in assay [9], 41.9 µM; in assay [10], > 82.5 µM.

In the case of `O=C(Nc1ccc([N+](=O)[O-])cc1Cl)c1cc(Cl)ccc1O`, the GI50 in assay [1] was 0.165 µM and 0.307 µM; in [2], 0.152 µM and 0.317 µM; in assay [3] it was 1.34 µM and 1.52 µM; in [4], 0.115 µM; in assay [5], 0.0194 µM and 0.0591 µM; in assay [6], 0.0846 µM and 0.185 µM. The GI50 in assay [7] was 0.111 µM and 0.167 µM; in assay [8], 0.203 µM and 0.295 µM; in [9], 1.26 µM and 2.16 µM; in [10] it was 0.155 µM and 0.334 µM. The TGI in assay [1] is 1.67 µM and 0.984 µM; in assay [3], 3.26 µM and 3.22 µM; in [4] it was 0.244 µM; in assay [5], 0.1 µM and 0.261 µM; in assay [6], 0.267 µM and 0.603 µM; in assay [7], 0.268 µM and 0.443 µM. The TGI is 5.42 µM and > 38.7 µM in [8]; 3.68 µM and > 28.8 µM in [9].

Take `N/C(=N/O)NOCCC(N)C(=O)O` (stereo not drawn): the GI50 in assay [1], in [2], in [3], in [4], in assay [5] and in [6] was > 100 µM throughout. Besides, the GI50 in [7], in [8], in assay [9] and in assay [10] was > 100 µM in each case. For the same molecule, the TGI in assay [1], in assay [2], in [3], in assay [4], in [5] and in assay [6] was > 100 µM each time. For the same molecule, the TGI in assay [7], in [8], in assay [9] and in assay [10] was > 100 µM in each case.

For `NC(=O)C1CCCN1Cc1ccc2c(c1)OCO2` (stereo not drawn), the TGI in assay [1], in [2], in [3], in [4], in assay [5] and in [6] was > 100 µM throughout. Moreover, the TGI in assay [7], in assay [8], in [9] and in [10] was > 100 µM in each case.

Regarding `O=C(Nc1n[nH]c2cc(-c3ccc(F)cc3)ccc12)C1CC1`, the GI50 in assay [1] is > 20.8 µM; in [2], 11 µM; in assay [3], 8.12 µM; in assay [4], 6.69 µM; in assay [5] it was 23.3 µM; in [6] it was 14.1 µM. The GI50 in assay [7] is 7.16 µM; in [8], 7.98 µM; in [9], 7.9 µM; in assay [10], 9.29 µM. Moreover, the TGI in assay [1] is > 25 µM; in assay [2] it was > 25 µM; in assay [3], > 18.8 µM; in assay [4] it was 22.3 µM; in assay [5] it was > 25 µM; in assay [6], > 25 µM. The TGI is > 21.9 µM in assay [7], > 25 µM in assay [8], > 25 µM in assay [9] and > 25 µM in assay [10].

As for `COc1ccc(CC2OC3(CCCCC3)CC3CCCCN32)cc1` (stereo not drawn), the TGI in assay [1], in assay [2], in assay [3], in assay [4], in assay [5] and in assay [6] was > 100 µM in each case. In addition, the TGI in assay [7], in [8], in assay [9] and in assay [10] was > 100 µM in each case.

As to `Cc1ccc(O)c(C(=O)/C=C/c2ccccc2)c1`, the TGI in assay [1], in assay [2], in assay [3], in assay [4], in [5] and in assay [6] was > 100 µM throughout. The TGI in assay [7], in assay [8], in [9] and in assay [10] was > 100 µM throughout.

For the molecule `COc1ccc(/C=C2\CCC(C)(CN(C)C)C2=O)cc1Br` (stereo not drawn), the TGI is 44 µM in assay [1]; 23.3 µM in assay [2]; 34.4 µM in assay [3]; 85.2 µM in assay [4]; > 85.8 µM in assay [5]; 36.6 µM in assay [6]. Moreover, the TGI in assay [7] was determined as 36.9 µM; in assay [8], 39.7 µM; in assay [9], 49.6 µM; in [10] it was 56.1 µM.

Consider `Nc1[nH]c(=S)[nH]c(=O)c1N=Nc1c(Br)cc(S(N)(=O)=O)cc1Br`, for which the TGI in [1], in assay [2], in assay [3], in assay [4], in assay [5] and in assay [6] was > 100 µM each time. The TGI in assay [7], in [8], in assay [9] and in assay [10] was > 100 µM throughout.

Take `Cc1ccccc1N=C(c1ccccc1)C1C(=O)c2ccccc2C1=O`: the GI50 in [1] is 8.43 µM; in assay [2] it was 13.3 µM; in [3] it was 13.8 µM; in [4] it was 9.49 µM; in assay [5] it was 14.4 µM; in assay [6] it was 18 µM. Moreover, the GI50 in assay [7] is 3.32 µM; in assay [8], 18.9 µM; in assay [9] it was 13.7 µM; in [10], 19.4 µM. The TGI in assay [1] was 38.5 µM; in assay [2] it was 40.2 µM; in assay [3], 38.5 µM; in [4] it was 32.6 µM; in [5], 53.8 µM; in assay [6], 96.6 µM. In addition, the TGI was 59.8 µM in [7], 62 µM in assay [8], > 100 µM in [9] and 57.5 µM in assay [10].
